pIC50: −log10 of the molar value.
What was measured:
[1] = biological target: Voltage-gated inwardly rectifying potassium channel KCNH2 (Homo sapiens, UniProt Q12809); assay: Displacement of [3H]astemizole from human ERG; settings: for inhibition (INH): human
[2] = biological target: T1, Steroid hormone receptor ERR1 (Homo sapiens, UniProt P11474); assay: Antagonist activity at His6-tagged ERRalpha LBD (unknown origin) assessed as inhibition of GST-tagged SRC-2 co-activator peptide recruitment after 18 hrs by TR-FRET assay
T1 sequence (P11474 whole entry): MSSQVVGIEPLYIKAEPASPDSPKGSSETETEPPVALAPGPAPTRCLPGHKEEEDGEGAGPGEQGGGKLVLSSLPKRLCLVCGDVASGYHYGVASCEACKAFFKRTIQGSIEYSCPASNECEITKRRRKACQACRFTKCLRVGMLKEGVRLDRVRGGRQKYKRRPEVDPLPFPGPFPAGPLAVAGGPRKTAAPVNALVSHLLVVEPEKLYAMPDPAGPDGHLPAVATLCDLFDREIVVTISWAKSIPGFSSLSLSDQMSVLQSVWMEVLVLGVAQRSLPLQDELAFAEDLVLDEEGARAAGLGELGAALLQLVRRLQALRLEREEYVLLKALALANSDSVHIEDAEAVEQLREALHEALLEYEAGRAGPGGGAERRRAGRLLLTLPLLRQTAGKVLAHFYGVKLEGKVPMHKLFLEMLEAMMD

Rattus norvegicus [3] = assay: Decrease in fed plasma triglyceride level in Zucker rat sub-chronic fa/fa prediabetic model assessed as change in plasma triglyceride level at 10 mg/kg, po qd for 4 days measured on day 5 relative to control; format: functional; parameters: scale not given: the % may be the effect or the level left
Rattus norvegicus [4] = assay: Decrease in fed plasma insulin level in Zucker rat sub-chronic fa/fa prediabetic model assessed as change in plasma insulin level at 10 mg/kg, po qd for 4 days measured on day 5 relative to control; format: functional; parameters: scale not given: the % may be the effect or the level left
[5] = Drug uptake in Sprague-Dawley rat plasma at 10 mg/kg, po via gavage by LC-MS analysis; format: ADME, organism-based; settings: in vivo
Cytochrome P450 2C19 = Cytochrome P450 2C19 (Homo sapiens, UniProt P33261); assay: Inhibition of CYP2C19 (unknown origin) in microsomes; format: ADME
Cytochrome P450 3A4 = Cytochrome P450 3A4 (Homo sapiens, UniProt P08684); assay: Inhibition of CYP3A4 (unknown origin) in microsomes; format: ADME
Cytochrome P450 2C9 = Cytochrome P450 2C9 (Homo sapiens, UniProt P11712); assay: Inhibition of CYP2C9 (unknown origin) in microsomes; format: ADME
Rattus norvegicus [6] = assay: Toxicity in Zucker rat sub-chronic fa/fa prediabetic model assessed as increase in body weight at 10 mg/kg, po qd for 4 days; format: organism-based; settings: in vivo, 96 h
Rattus norvegicus [7] = assay: Decrease in fed plasma glucose level in Zucker rat sub-chronic fa/fa prediabetic model at 10 mg/kg, po qd for 4 days measured on day 5 relative to control; format: functional; parameters: scale not given: the % may be the effect or the level left
Rattus norvegicus [8] = assay: Decrease in fed plasma free fatty acid level in Zucker rat sub-chronic fa/fa prediabetic model at 10 mg/kg, po qd for 4 days measured on day 5 relative to control; format: functional; parameters: scale not given: the % may be the effect or the level left
[9] = biological target: Steroid hormone receptor ERR2 (Homo sapiens, UniProt O95718); assay: Antagonist activity at recombinant GST-tagged human ERRbeta LBD assessed as inhibition of fluorescein-labeled coactivator peptide recruitment preincubated with enzyme followed by coactivator addition by LanthaScreen TR-FRET assay
Rattus norvegicus [10] = assay: Toxicity in Zucker rat sub-chronic fa/fa prediabetic model assessed as increase in food consumption at 10 mg/kg, po qd during 10 days study; format: organism-based; settings: in vivo, 240 h
Rattus norvegicus [11] = assay: Antidiabetic activity in Zucker rat sub-chronic fa/fa prediabetic model assessed as decrease in plasma glucose AUC (0 to 120 mins) at 10 mg/kg, po qd during 10 days study by OGTT relative to control; format: functional; parameters: scale not given: the % may be the effect or the level left
Rattus norvegicus [12] = assay: Toxicity in Zucker rat sub-chronic fa/fa prediabetic model assessed as effect on liver enzymes at 10 mg/kg, po qd during 10 days study; format: organism-based; settings: in vivo, 240 h
Rattus norvegicus [13] = assay: Toxicity in Zucker rat sub-chronic fa/fa prediabetic model assessed as increase in body weight at 10 mg/kg, po qd during 10 days study; format: organism-based; settings: in vivo, 240 h

Chain of Voltage-gated inwardly rectifying potassium channel KCNH2 (Q12809 whole entry, the tested form may be a part): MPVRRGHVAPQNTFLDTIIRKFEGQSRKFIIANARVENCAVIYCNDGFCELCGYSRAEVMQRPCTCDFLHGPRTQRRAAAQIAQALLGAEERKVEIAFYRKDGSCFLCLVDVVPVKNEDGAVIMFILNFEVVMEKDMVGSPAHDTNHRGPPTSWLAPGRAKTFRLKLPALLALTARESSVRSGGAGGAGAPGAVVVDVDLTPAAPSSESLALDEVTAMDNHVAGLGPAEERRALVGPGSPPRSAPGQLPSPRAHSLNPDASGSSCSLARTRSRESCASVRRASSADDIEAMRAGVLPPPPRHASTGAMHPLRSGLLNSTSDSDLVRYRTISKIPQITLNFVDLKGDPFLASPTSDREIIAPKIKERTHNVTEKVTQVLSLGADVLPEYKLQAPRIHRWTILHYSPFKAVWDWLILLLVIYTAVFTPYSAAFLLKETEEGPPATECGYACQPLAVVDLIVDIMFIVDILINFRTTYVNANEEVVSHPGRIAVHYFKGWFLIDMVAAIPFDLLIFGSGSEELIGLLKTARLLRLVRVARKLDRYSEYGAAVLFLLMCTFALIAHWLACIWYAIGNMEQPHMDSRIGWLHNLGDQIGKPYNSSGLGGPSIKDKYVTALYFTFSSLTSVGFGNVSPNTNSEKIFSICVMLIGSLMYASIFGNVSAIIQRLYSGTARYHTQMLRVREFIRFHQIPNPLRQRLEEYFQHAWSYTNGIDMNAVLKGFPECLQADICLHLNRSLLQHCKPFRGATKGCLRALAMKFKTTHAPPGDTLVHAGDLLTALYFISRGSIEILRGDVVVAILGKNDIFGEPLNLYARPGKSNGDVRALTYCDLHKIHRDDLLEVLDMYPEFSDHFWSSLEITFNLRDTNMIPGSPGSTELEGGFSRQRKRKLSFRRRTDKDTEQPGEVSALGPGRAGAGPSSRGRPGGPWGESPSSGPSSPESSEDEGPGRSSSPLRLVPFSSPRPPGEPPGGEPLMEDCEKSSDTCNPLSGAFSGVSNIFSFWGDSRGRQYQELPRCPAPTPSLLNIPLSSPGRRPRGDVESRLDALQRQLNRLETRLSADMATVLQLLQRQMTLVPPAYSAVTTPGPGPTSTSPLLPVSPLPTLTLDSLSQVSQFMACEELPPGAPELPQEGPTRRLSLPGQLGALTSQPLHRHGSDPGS
Chain of Cytochrome P450 3A4 (P08684 whole entry): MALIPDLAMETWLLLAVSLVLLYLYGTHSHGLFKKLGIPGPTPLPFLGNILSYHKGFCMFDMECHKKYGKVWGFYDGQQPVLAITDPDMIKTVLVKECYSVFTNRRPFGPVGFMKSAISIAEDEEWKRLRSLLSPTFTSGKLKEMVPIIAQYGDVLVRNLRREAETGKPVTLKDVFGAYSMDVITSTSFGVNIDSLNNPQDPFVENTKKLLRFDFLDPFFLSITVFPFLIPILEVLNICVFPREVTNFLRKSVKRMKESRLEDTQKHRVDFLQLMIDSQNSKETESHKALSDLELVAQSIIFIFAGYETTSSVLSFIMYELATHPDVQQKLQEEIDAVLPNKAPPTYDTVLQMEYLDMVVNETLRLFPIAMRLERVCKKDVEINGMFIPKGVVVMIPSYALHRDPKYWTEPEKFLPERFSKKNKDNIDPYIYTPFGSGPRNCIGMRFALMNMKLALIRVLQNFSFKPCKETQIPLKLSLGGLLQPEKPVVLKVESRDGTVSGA
Chain of Cytochrome P450 2C9 (P11712 whole entry): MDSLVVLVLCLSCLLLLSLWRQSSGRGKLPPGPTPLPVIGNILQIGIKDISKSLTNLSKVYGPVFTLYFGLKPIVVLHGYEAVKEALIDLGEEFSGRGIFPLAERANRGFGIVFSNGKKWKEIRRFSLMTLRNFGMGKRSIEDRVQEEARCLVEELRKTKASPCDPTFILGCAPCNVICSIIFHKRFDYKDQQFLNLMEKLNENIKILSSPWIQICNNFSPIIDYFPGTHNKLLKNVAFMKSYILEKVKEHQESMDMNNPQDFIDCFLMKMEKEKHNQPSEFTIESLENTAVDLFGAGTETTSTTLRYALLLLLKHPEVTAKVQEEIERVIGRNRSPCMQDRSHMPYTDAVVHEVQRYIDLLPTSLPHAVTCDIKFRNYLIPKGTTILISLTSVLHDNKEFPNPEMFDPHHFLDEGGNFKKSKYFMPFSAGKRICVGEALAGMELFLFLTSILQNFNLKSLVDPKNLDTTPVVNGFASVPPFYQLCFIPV
Chain of Cytochrome P450 2C19 (P33261 whole entry): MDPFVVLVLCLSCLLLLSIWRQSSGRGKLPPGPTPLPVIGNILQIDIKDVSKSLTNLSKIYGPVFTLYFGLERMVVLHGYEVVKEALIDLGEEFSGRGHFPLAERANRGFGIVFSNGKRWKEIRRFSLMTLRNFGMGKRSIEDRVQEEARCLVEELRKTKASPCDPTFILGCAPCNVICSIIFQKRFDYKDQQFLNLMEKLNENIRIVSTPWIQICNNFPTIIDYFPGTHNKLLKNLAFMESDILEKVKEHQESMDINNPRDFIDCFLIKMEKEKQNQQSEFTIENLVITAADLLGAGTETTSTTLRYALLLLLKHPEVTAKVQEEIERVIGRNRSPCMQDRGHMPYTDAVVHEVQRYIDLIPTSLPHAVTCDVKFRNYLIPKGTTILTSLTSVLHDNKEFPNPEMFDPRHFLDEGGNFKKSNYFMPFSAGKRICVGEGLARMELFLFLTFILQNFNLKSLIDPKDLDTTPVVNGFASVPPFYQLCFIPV
Chain of Steroid hormone receptor ERR2 (O95718 whole entry, the tested form may be a part): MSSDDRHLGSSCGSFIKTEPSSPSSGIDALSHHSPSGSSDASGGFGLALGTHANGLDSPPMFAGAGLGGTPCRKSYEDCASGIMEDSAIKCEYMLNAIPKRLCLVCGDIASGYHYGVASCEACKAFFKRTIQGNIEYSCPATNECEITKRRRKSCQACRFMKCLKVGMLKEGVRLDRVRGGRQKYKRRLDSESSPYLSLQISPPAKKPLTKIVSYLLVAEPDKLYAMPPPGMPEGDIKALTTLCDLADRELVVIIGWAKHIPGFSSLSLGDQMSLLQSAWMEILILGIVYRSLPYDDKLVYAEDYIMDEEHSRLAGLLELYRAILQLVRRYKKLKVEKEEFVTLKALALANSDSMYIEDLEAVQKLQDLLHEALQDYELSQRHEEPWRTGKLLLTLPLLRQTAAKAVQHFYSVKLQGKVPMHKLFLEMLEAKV

| SMILES | pIC50 [2] | Activity (Rattus norvegicus [3]) [%] | Activity (Rattus norvegicus [4]) [%] | further results |
| --- | --- | --- | --- | --- |
| CN1CC[C@@H](N2C(=O)S/C(=C\c3ccc4c(cnn4Cc4ccc(Cl)cc4C(F)(F)F)c3)C2=O)[C@H](O)C1 (relative stereo) | 7.64 |  |  | inhibition (INH) [1]: Active |
| O=C(O)C1CCC(N2C(=O)S/C(=C\c3ccc4c(cnn4Cc4ccc(Cl)cc4C(F)(F)F)c3)C2=O)CC1 (configuration not stated) | 7.92 | -19 | -30 |  |
| O=C(O)CN1C(=O)S/C(=C\c2ccc3c(cnn3Cc3ccc(C(F)(F)F)cc3C(F)(F)F)c2)C1=O | 7.59 |  |  |  |
| CS(=O)(=O)NC(=O)CN1C(=O)S/C(=C\c2ccc3c(cnn3Cc3ccc(Cl)cc3C(F)(F)F)c2)C1=O | 7.74 | 13 | -14 |  |
| N[C@@H](CO)CN1C(=O)S/C(=C\c2ccc3c(cnn3Cc3ccc(Cl)cc3C(F)(F)F)c2)C1=O | 7.64 | -45 | -33 | inhibition (INH) [1]: Active; Cp [5]: < 100 ng/mL |
| O=C1S/C(=C\c2ccc3c(cnn3Cc3ccc(C(F)(F)F)cc3C(F)(F)F)c2)C(=O)N1CCN1CCCC1 | 6.24 |  |  |  |
| O=C(CN1C(=O)S/C(=C\c2ccc3c(cnn3Cc3ccc(Cl)cc3C(F)(F)F)c2)C1=O)NS(=O)(=O)N1CCCC1 | 7.60 | 1 | -47 | Drug uptake [5]: Active |
| C[C@H](N)CN1C(=O)S/C(=C\c2ccc3c(cnn3Cc3ccc(Cl)cc3C(F)(F)F)c2)C1=O | 7.62 | -55 | -60 | Cp [5]: < 100 ng/mL |
| O=C1S/C(=C\c2ccc3c(cnn3Cc3ccc(Cl)cc3C(F)(F)F)c2)C(=O)N1[C@@H]1CCNC[C@H]1O (relative stereo) | 7.60 |  |  | inhibition (INH) [1]: Active |
| NS(=O)(=O)NC(=O)CN1C(=O)S/C(=C\c2ccc3c(cnn3Cc3ccc(Cl)cc3C(F)(F)F)c2)C1=O | 7.72 | -14 | -51 |  |
| O=C1S/C(=C\c2ccc3c(cnn3Cc3ccc(Cl)cc3C(F)(F)F)c2)C(=O)N1C[C@H]1COCCN1 | 7.82 | -61 | -52 | inhibition (INH) [1]: Active; Cp [5]: < 100 ng/mL |
| O=C1S/C(=C\c2ccc3c(cnn3Cc3ccc(Cl)cc3C(F)(F)F)c2)C(=O)N1C1CCNCC1 | 7.80 |  |  | inhibition (INH) (Cytochrome P450 2C19): Active; inhibition (INH) (Cytochrome P450 3A4): Active; inhibition (INH) (Cytochrome P450 2C9): Active |
| Cc1nn(Cc2ccc(Cl)cc2C(F)(F)F)c2ccc(/C=C3\SC(=O)N(CC(=O)NS(=O)(=O)N4CCCC4)C3=O)cc12 | 7.27 | -23 | -10 | Drug uptake [5]: Active |
| O=C1S/C(=C\c2ccc3c(cnn3Cc3ccc(Cl)cc3C(F)(F)F)c2)C(=O)N1[C@@H]1CCNC[C@H]1F (relative stereo) | 7.47 |  |  | pIC50 [1]: 4.68 |
| CC(=O)NS(=O)(=O)CN1C(=O)S/C(=C\c2ccc3c(cnn3Cc3ccc(Cl)cc3C(F)(F)F)c2)C1=O | 8.10 | -37 | -58 |  |
| COc1ccc(Cn2ncc3cc(/C=C4\SC(=O)N(CCN5CCCC5)C4=O)ccc32)c(C(F)(F)F)c1 | 7.34 |  |  |  |

| SMILES | pIC50 [2] | Activity (Rattus norvegicus [3]) [%] | Activity (Rattus norvegicus [4]) [%] | further results |
| --- | --- | --- | --- | --- |
| CN(C)S(=O)(=O)NC(=O)CN1C(=O)S/C(=C\c2ccc3c(cnn3Cc3ccc(Cl)cc3C(F)(F)F)c2)C1=O | 7.64 | -46 | -29 |  |
| CN1CC[C@H](N2C(=O)S/C(=C\c3ccc4c(cnn4Cc4ccc(Cl)cc4C(F)(F)F)c3)C2=O)[C@H](F)C1 (relative stereo) | 7.35 | -57 | -73 | inhibition (INH) [1]: Not Active; inhibition (INH) (Cytochrome P450 2C19): Not Active; Activity (Rattus norvegicus [6]): Non-Toxic; inhibition (INH) (Cytochrome P450 3A4): Not Active; inhibition (INH) (Cytochrome P450 2C9): Not Active; Activity (Rattus norvegicus [7]): -43%; Activity (Rattus norvegicus [8]): -35% |
| O=C1S/C(=C\c2ccc3c(cnn3Cc3ccc(Cl)cc3C(F)(F)F)c2)C(=O)N1CCN1CCOCC1 | 7.37 |  |  |  |
| COc1ccc(Cn2ncc3cc(/C=C4\SC(=O)N(CC(=O)O)C4=O)ccc32)c(C(F)(F)F)c1 | 8.05 | 21 | -9 |  |
| CN1CCC[C@H]1CN1C(=O)S/C(=C\c2ccc3c(cnn3Cc3ccc(Cl)cc3C(F)(F)F)c2)C1=O | 8.30 | -37 | -59 | Cp [5]: < 100 ng/mL |
| CN1CCC(N2C(=O)S/C(=C\c3ccc4c(cnn4Cc4ccc(Cl)cc4C(F)(F)F)c3)C2=O)CC1 | 7.72 |  |  | inhibition (INH) (Cytochrome P450 3A4): Active |
| COc1ccc(Cn2ncc3cc(/C=C4\SC(=O)N(CCN5CCOCC5)C4=O)ccc32)c(C(F)(F)F)c1 | 8.10 | -19 | -21 |  |
| CCC(=C(c1ccc(O)cc1)c1ccc(OCCN(C)C)cc1)c1ccccc1 |  |  |  | pIC50 [9]: 6.05 |
| O=C1S/C(=C\c2ccc3c(cnn3Cc3ccc(Cl)cc3C(F)(F)F)c2)C(=O)N1C1CCN(CCO)CC1 | 7.82 | -40 | -77 | inhibition (INH) [1]: Active |
| Cc1nn(Cc2ccc(Cl)cc2C(F)(F)F)c2ccc(/C=C3\SC(=O)N(CC(=O)O)C3=O)cc12 | 7.55 | -4 | -18 |  |
| O=C1S/C(=C\c2ccc3c(cnn3Cc3ccc(Cl)cc3C(F)(F)F)c2)C(=O)N1CCN1CCCC1 | 7.77 | -30 | -49 | inhibition (INH) [1]: Active; Cp [5]: < 100 ng/mL |
| O=C(O)CN1C(=O)S/C(=C\c2ccc3c(cnn3Cc3ccc(Cl)cc3C(F)(F)F)c2)C1=O | 8.05 | -14 | -50 |  |
| COc1ccc(Cn2ncc3cc(/C=C4\SC(=O)N(C5CCC(C(=O)O)CC5)C4=O)ccc32)c(C(F)(F)F)c1 (configuration not stated) |  | 32 | -11 |  |
| CN1CC[C@H](N2C(=O)S/C(=C\c3ccc4c(cnn4Cc4ccc(Cl)cc4C(F)(F)F)c3)C2=O)[C@@H](F)C1 | 7.66 | -51 | -52 | Activity (Rattus norvegicus [10]): Toxic; Activity (Rattus norvegicus [11]): -37%; Activity (Rattus norvegicus [12]): Toxic; Activity (Rattus norvegicus [13]): Toxic; Activity (Rattus norvegicus [7]): -27% |
| O=C1S/C(=C\c2ccc3c(cnn3Cc3ccc(Cl)cc3C(F)(F)F)c2)C(=O)N1Cc1nnn[nH]1 | 7.89 | -51 | -44 |  |
